Measurements published in patent publication EP3782997A1, “FUSED PYRIMIDINE COMPOUNDS AND PHARMACEUTICAL COMPOSITIONS THEREOF FOR THE TREATMENT OF FIBROTIC DISEASES” (Galapagos N.V., priority 2019, dated 2021).

Target: hENPP2 (Homo sapiens, UniProt Q13822)
Assay: Human ENPP2 (hENPP2) biochemical assay using LPC as substrate
Conditions: 150 µM LPC (palmitoyl 16:0), 37°C for 30 min
Description: The principle of the assay conswasts in quantifying the released choline with an enzymatic method using choline oxidase and peroxidase. Choline oxydation by choline oxydase releases betaine and peroxide. The latter was quantified in presence of HRP that converts the peroxide detection agent TOOS (CAS# 82692-93-1) and 4-aminoantipyrine into quinoneimine dye. The appearance of quinoneimine dye was measured spectrophotometrically at 555 nm and was proportional to the amount of choline released by ENPP2. Inhibition of ENPP2 results in a decrease of the signal.
Compound IC50 values were determined in a hENPP2 (UniProtKB/SwwassProt Sequence ref Q13822) biochemical assay using LPC as substrate.
5 µL of a dilution series of compound, starting from 50 µM highest concentration, 1/3 dilution, was added to the wells. hENPP2 was used at a final concentration of 1 µg/mL or 3 µg/mL (it will be appreciated by the skilled person that the potency read out was independent of the enzyme concentration). The enzyme was diluted in 50 mM Trwas-HCl pH 8.5, 500 mM NaCl, 5 mM KCl, 10 mM CaCl2, 0.1% fatty acid free BSA in a total volume of 10 µL. The reaction was started by the addition of 10 µL of 150 µM LPC (palmitoyl 16:0; Avanti Polar Lipids, Inc., Cat# 855675) diluted in the same buffer as described above and the mixture was incubated at 37°C for 30 min. The reaction was terminated and choline quantified by the addition of a 25 µL of a mixture containing 0.6 U/mL of choline oxidase, 0.6 U/mL of peroxydase, 1.8 mM TOOS, 1.2 mM amino-antipyrine, 20 mM EGTA (stop-developer solution) diluted in the buffer described above. […] was read on an Envision plate reader (PerkinElmer, Inc.) after an incubation of 30 min at room temperature (excitation 555 nm).

| IC50 | Compound |
| --- | --- |
| 500 to 1000 nM | Cc1cc(C)cc(Nc2ncc3c(n2)CN([C@@H]2CN(C(=O)c4ccc5[nH]nnc5c4)C[C@@H]2F)C3)c1 (racemic) [compound 102, 1H-benzotriazol-5-yl-[(3R,4S/3S,4R)-3-[2-(3,5-dimethylanilino)-5,7-dihydropyrrolo[3,4-d]pyrimidin-6-yl] -4-fluoro-pyrrolidin-1-yl]methanone] |
| 0.01 to 100 nM | Cc1cc(C)cc(Nc2ncc3c(n2)CN(C2CCN(C(=O)c4ccc5[nH]nnc5c4)CC2O)C3)c1 (single isomer, unassigned) [Cpd 110, 1H-benzotriazol-5-yl-[4-[2-(3,5-dimethylanilino)-5,7-dihydropyrrolo[3,4-d]pyrimidin-6-yl]-3-hydroxy-1-piperidyl]methanone] |
| 500 to 1000 nM | Cc1cc(C)cc(Nc2ncc3c(n2)CN(C2CN(C(=O)c4ccc5[nH]nnc5c4)CCC2O)C3)c1 (single isomer, unassigned) [Cpd 111, 1H-benzotriazol-5-yl-[3-[2-(3,5-dimethylanilino)-5,7-dihydropyrrolo[3,4-d]pyrimidin-6-yl]-4-hydroxy-1-piperidyl]methanone] |
| 0.01 to 100 nM | COC(=O)[C@H]1CN(C(=O)c2ccc3[nH]nnc3c2)CC[C@@H]1N1Cc2cnc(Nc3cc(C)cc(C)c3)nc2C1 (single isomer, unassigned) [Cpd 136] |
| 0.01 to 100 nM | CCOc1cc2[nH]nnc2cc1C(=O)N1CC[C@H](N2Cc3cnc(Nc4cc(C)cc(C)c4)nc3C2)C[C@H]1C (single isomer, unassigned) [Cpd 138] |
| 0.01 to 100 nM | CCOc1cc2[nH]nnc2cc1C(=O)N1CC[C@@H](N2Cc3cnc(Nc4cc(C)cc(C)c4)nc3C2)C[C@H]1C (single isomer, unassigned) [Cpd 139] |
| 0.01 to 100 nM | C[C@@H]1C[C@@H](N2Cc3cnc(Nc4ccc(OC(F)(F)F)cc4)nc3C2)CCN1C(=O)c1ccc2[nH]nnc2c1 (single isomer, unassigned) [Cpd 164] |
| 0.01 to 100 nM | C[C@@H]1C[C@H](N2Cc3cnc(Nc4ccc(OC(F)(F)F)cc4)nc3C2)CCN1C(=O)c1ccc2[nH]nnc2c1 (single isomer, unassigned) [Cpd 169] |
| 0.01 to 100 nM | Cc1cc(C)cc(Nc2ncc3c(n2)CN(C2CN(C(=O)c4ccc5[nH]c(=O)oc5c4)C2)C3)c1 [Cpd 3, 6-[3-[2-(3,5-dimethylanilino)-5,7-dihydropyrrolo[3,4-d]pyrimidin-6-yl]azetidine-1-carbonyl]-3H-1,3-benzoxazol-2-one] |
| > 1000 nM | Cc1cc(C)cc(Nc2ncc3c(n2)CN(C2CN(C(=O)c4cccc(C(=O)O)c4)C2)C3)c1 [Cpd 25, 3-[3-[2-(3,5-dimethylanilino)-5,7-dihydropyrrolo[3,4-d]pyrimidin-6-yl]azetidine-1-carbonyl]benzoic acid] |
| 100 to 500 nM | Cc1cc(C)nc(Nc2ncc3c(n2)CN(C2CCN(C(=O)c4ccc5[nH]c(=O)oc5c4)CC2)C3)c1 [Cpd 60, 6-[4-[2-[(4,6-dimethyl-2-pyridyl)amino]-5,7-dihydropyrrolo[3,4-d]pyrimidin-6-yl]piperidine-1-carbonyl]-3H-1,3-benzoxazol-2-one] |
| 500 to 1000 nM | Cc1cc(C)cc(Nc2ncc3c(n2)CN(C2CCN(C(=O)c4cnc5[nH]nnc5c4)CC2)C3)c1 [Cpd 66, [4-[2-(3,5-dimethylanilino)-5,7-dihydropyrrolo[3,4-d]pyrimidin-6-yl]-1-piperidyl]-(3H-triazolo[4,5-b]pyridin-6-yl)methanone] |
| > 1000 nM | Cc1cc(C)cc(Nc2ncc3c(n2)CN(C2CN(C(=O)c4cnc5nn[nH]c5c4)C2)C3)c1 [Cpd 67, [3-[2-(3,5-dimethylanilino)-5,7-dihydropyrrolo[3,4-d]pyrimidin-6-yl]azetidin-1-yl]-(1H-triazolo[4,5-b]pyridin-6-yl)methanone] |
| > 1000 nM | Cc1cc(C)cc(Nc2ncc3c(n2)CCCN(C2CCN(C(=O)c4cnc5[nH]nnc5c4)CC2)C3)c1 [Cpd 76, [4-[2-(3,5-dimethylanilino)-5,7,8,9-tetrahydropyrimido[5,4-c]azepin-6-yl]-1-piperidyl]-(3H-triazolo[4,5-b]pyridin-6-yl)methanone] |
| 0.01 to 100 nM | Cc1cc(C)cc(Nc2ncc3c(n2)CN(C2CN(C(=O)c4ccc5[nH]nnc5n4)C2)C3)c1 [Cpd 86, [3-[2-(3,5-dimethylanilino)-5,7-dihydropyrrolo[3,4-d]pyrimidin-6-yl]azetidin-1-yl]-(1H-triazolo[4,5-b]pyridin-5-yl)methanone] |
| 0.01 to 100 nM | Cc1cc(C)cc(Nc2ncc3c(n2)CCN(C2CCN(C(=O)c4ccc5[nH]nnc5c4)[C@@H](C)C2)C3)c1 (stereo partly drawn) [Cpd 96, 1H-benzotriazol-5-yl-[(2S)-4-[2-(3,5-dimethylanilino)-7,8-dihydro-5H-pyrido[4,3-d]pyrimidin-6-yl]-2-methyl-1-piperidyl]methanone] |
| 100 to 500 nM | Cc1cc(C)cc(Nc2ncc3c(n2)CCN([C@@H]2CCN(C(=O)c4ccc5[nH]nnc5c4)[C@H](C)C2)C3=O)c1 [Cpd 97, 6-[(2R,4R)-1-(1H-benzotriazole-5-carbonyl)-2-methyl-4-piperidyl]-2-(3,5-dimethylanilino)-7,8-dihydropyrido[4,3-d]pyrimidin-5-one] |
| 0.01 to 100 nM | Cc1cc(C)cc(Nc2ncc3c(n2)CN(C2CCN(C(=O)c4ccc5[nH]nnc5c4)C(C)(C)C2)C3)c1 (stereo not drawn) [Cpd 100, 1H-benzotriazol-5-yl-[4-[2-(3,5-dimethylanilino)-5,7-dihydropyrrolo[3,4-d]pyrimidin-6-yl]-2,2-dimethyl-1-piperidyl]methanone] |

| Compound | IC50 |
| --- | --- |
| COC(=O)[C@H]1CN(C(=O)c2ccc3[nH]nnc3c2)CC[C@H]1N1Cc2cnc(Nc3cc(C)cc(C)c3)nc2C1 (racemic) [Cpd 137, methyl (3S,4R/3R,4S)-1-(1H-benzotriazole-5-carbonyl)-4-[2-(3,5-dimethylanilino)-5,7-dihydropyrrolo[3,4-d]pyrimidin-6-yl]piperidine-3-carboxylate] | 0.01 to 100 nM |
| Cc1cc(C)cc(Nc2ncc3c(n2)CN(C2CCN(C(=O)c4ccc5[nH]nnc5c4)C(C)C2)C3)c1 (racemic) [compound 34, 1H-benzotriazol-5-yl-[(2S,4S/2R,4R)-4-[2-(3,5-dimethylanilino)-5,7-dihydropyrrolo[3,4-d]pyrimidin-6-yl]-2-methyl-1-piperidyl]methanone] | 0.01 to 100 nM |
| Cc1cc(C)cc(Nc2ncc3c(n2)CN([C@H]2CCN(C(=O)c4ccc5[nH]nnc5c4)C[C@@H]2C)C3)c1 (racemic) [compound 99, 1H-benzotriazol-5-yl-[(3S,4S/3R,4R)-4-[2-(3,5-dimethylanilino)-5,7-dihydropyrrolo[3,4-d]pyrimidin-6-yl]-3-methyl-1-piperidyl]methanone] | 0.01 to 100 nM |
| Cc1cc(C)cc(Nc2ncc3c(n2)CCN([C@H]2CN(C(=O)c4ccc5[nH]nnc5c4)C[C@H]2F)C3)c1 (racemic) [compound 103, 1H-benzotriazol-5-yl-[(3S,4R/3R,4S)-3-[2-(3,5-dimethylanilino)-7,8-dihydro-5H-pyrido[4,3-d]pyrimidin-6-yl] -4-fluoro-pyrrolidin-1-yl]methanone] | 0.01 to 100 nM |
| COc1cc2[nH]nnc2cc1C(=O)N1CC[C@H](N2Cc3cnc(Nc4cc(C)cc(C)c4)nc3C2)[C@H](C)C1 (racemic) [compound 119, [(3R,4S/3S,4R)-4-[2-(3,5-dimethylanilino)-5,7-dihydropyrrolo[3,4-d]pyrimidin-6-yl]-3-methyl-1-piperidyl]-(6-methoxy-1H-benzotriazol-5-yl)methanone] | 0.01 to 100 nM |
| Cc1cc(C)cc(Nc2ncc3c(n2)CN([C@H]2CCN(C(=O)c4cc5nn[nH]c5cc4F)C[C@H]2C)C3)c1 (racemic) [compound 148, [(3R,4S/3S,4R)-4-[2-(3,5-dimethylanilino)-5,7-dihydropyrrolo[3,4-d]pyrimidin-6-yl]-3-methyl-1-piperidyl]-(6-fluoro-1H-benzotriazol-5-yl)methanone] | 0.01 to 100 nM |
| Cc1cc(C)cc(Nc2ncc3c(n2)CN([C@H]2CCN(C(=O)c4ccnc(NS(C)(=O)=O)c4)C[C@H]2C)C3)c1 (racemic) [compound 167, N-[4-[(3R,4S/3S,4R)-4-[2-(3,5-dimethylanilino)-5,7-dihydropyrrolo[3,4-d]pyrimidin-6-yl]-3-methyl-piperidine-1-carbonyl]-2-pyridyl]methanesulfonamide] | 0.01 to 100 nM |
| Cc1cc(C)cc(Nc2ncc3c(n2)CN([C@H]2CCN(C(=O)c4c[nH]nn4)C[C@H]2C)C3)c1 (racemic) [compound 172, [(3R,4S/3S,4R)-4-[2-(3,5-dimethylanilino)-5,7-dihydropyrrolo[3,4-d]pyrimidin-6-yl]-3-methyl-1-piperidyl]-(1H-triazol-4-yl)methanone] | 0.01 to 100 nM |
| Cc1cc(C)cc(Nc2ncc3c(n2)CCN(C2CN(C(=O)c4ccc5[nH]c(=O)oc5c4)C2)C3)c1 [Cpd 1, 6-[3-[2-(3,S-dimethylanilino)-7,8-dihydro-5H-pyrido[4,3-d]pyrimidin-6-yl]azetidine-1-carbonyl]-3H-1,3-benzoxazol-2-one] | 0.01 to 100 nM |
